Test results reported in ChEMBL document CHEMBL1255257, “Assessment of serum (1->3)-beta-D-glucan concentration as a measure of disease burden in a murine model of invasive pulmonary aspergillosis” (2008).
Active and inactive are the calls of the source. The calls are words filed in the database; no cut-off is given here.

Assays:
[1] = system: Aspergillus fumigatus; assay: Antifungal activity against Aspergillus fumigatus isolate CEA 10 infected in ICR mouse assessed survival of the mouse at 40 mg/kg, po QD; assay type: functional, organism-based; design: dose 40 mg/kg
[2] = system: Aspergillus fumigatus; assay: Antifungal activity against Aspergillus fumigatus isolate AF 293 infected in ICR mouse assessed as pulmonary fungal burden at 40 mg/kg, po QD; assay type: functional
[3] = system: Aspergillus fumigatus; assay: Antifungal activity against Aspergillus fumigatus isolate AF 293 infected in ICR mouse assessed survival of the mouse at 40 mg/kg, po QD; assay type: functional, organism-based; design: dose 40 mg/kg
[4] = system: Aspergillus fumigatus; assay: Antifungal activity against Aspergillus fumigatus isolate CEA 10 infected in ICR mouse assessed as decrease in (1-3)-beta-D-glucan concentration in serum at 40 mg/kg, po QD (RVb= 707 pg/ml); assay type: functional, organism-based; design: dose 40 mg/kg
[5] = system: Aspergillus fumigatus; assay: Antifungal activity against Aspergillus fumigatus isolate AF 293 infected in ICR mouse assessed as decrease in (1-3)-beta-D-glucan concentration in serum at 40 mg/kg, po QD (RVb= 758 pg/ml); assay type: functional, organism-based; design: dose 40 mg/kg
[6] = system: Aspergillus fumigatus; assay: Antifungal activity against Aspergillus fumigatus isolate CEA 10 infected in ICR mouse assessed as pulmonary fungal burden at 40 mg/kg, po QD; assay type: functional

## CC[C@@H]([C@H](C)O)n1ncn(-c2ccc(N3CCN(c4ccc(OC[C@@H]5CO[C@@](Cn6cncn6)(c6ccc(F)cc6F)C5)cc4)CC3)cc2)c1=O [POSACONAZOLE]
[1]
  Activity: Active
[2]
  fold change (FC): 3.6
[3]
  Activity: Active
[4]
  Activity: Active
[5]
  Activity: Active
[6]
  fold change (FC): 7.3
